Reference: ChEMBL document CHEMBL1135173, “Discovery of substituted 3,4-diphenyl-thiazoles as a novel class of monoamine transporter inhibitors through 3-D pharmacophore search using a new pharmacophore model derived from mazindol” (Bioorg Med Chem Lett, 2002)

Legend:
[1] = target: Sodium-dependent dopamine transporter (Rattus norvegicus, UniProt P23977); assay: Tested for the ability to displace [3H]WIN-35 428 binding to dopamine transporter (DAT) in rat striatal tissue; type: tissue-based, Striatum
Sodium-dependent dopamine transporter, sequence (P23977 whole entry): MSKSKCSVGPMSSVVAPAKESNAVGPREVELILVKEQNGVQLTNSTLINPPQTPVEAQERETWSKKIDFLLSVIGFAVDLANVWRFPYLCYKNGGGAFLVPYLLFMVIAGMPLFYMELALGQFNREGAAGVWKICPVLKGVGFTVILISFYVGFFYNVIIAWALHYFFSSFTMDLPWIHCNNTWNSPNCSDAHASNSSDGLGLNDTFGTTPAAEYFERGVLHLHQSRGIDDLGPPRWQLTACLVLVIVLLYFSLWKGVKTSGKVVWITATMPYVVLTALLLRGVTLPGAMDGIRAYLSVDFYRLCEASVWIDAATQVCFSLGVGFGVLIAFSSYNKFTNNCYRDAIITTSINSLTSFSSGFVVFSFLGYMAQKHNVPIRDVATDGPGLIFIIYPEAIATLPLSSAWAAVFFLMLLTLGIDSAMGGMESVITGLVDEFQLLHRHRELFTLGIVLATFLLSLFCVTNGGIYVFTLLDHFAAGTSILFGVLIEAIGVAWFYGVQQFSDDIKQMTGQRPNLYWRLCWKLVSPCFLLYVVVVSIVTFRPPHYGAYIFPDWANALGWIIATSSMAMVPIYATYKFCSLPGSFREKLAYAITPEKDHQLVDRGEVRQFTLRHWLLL

[2] = target: Norepinephrine transporter (Rattus norvegicus, UniProt Q9WTR4); assay: Compound was tested for the inhibition of norepinephrine [3H]NE reuptake into rat cortical membranes; type: cell membranes, Membrane
Norepinephrine transporter, sequence (Q9WTR4 whole entry): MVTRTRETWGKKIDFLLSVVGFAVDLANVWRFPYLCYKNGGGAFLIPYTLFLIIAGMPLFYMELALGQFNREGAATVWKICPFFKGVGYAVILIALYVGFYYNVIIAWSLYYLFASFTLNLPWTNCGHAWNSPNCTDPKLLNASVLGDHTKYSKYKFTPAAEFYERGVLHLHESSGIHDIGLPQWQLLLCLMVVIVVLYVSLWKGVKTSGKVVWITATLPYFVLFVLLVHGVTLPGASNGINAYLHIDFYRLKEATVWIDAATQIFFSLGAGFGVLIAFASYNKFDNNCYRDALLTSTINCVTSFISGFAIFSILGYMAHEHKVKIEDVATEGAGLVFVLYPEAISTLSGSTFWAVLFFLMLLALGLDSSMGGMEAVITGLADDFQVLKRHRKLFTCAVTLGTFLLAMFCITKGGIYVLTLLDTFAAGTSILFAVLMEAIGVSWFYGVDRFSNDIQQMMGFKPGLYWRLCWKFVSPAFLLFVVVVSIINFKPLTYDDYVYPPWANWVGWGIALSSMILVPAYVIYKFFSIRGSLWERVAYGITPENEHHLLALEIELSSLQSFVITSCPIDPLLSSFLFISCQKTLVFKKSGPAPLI

[3] = target: Norepinephrine transporter (Rattus norvegicus) (UniProt Q9WTR4); assay: Selectivity ratio towards Norepinephrine and to that of dopamine transporter
Norepinephrine transporter (Rattus norvegicus), sequence (Q9WTR4 as listed by the source): as the sequence (Q9WTR4 whole entry) above

[4] = target: Norepinephrine transporter (Rattus norvegicus) (UniProt Q9WTR4); assay: Selectivity ratio towards Norepinephrine and to that of serotonin transporter
[5] = target: Monoamine transporters; serotonin & dopamine (Rattus norvegicus) (UniProt P31652+P23977); assay: Selectivity ratio towards Serotonin and to that of dopamine transporter; type: protein assay
Monoamine transporters; serotonin & dopamine (Rattus norvegicus), sequence (P23977 whole entry, looked up): as the sequence (P23977 whole entry) above
Monoamine transporters; serotonin & dopamine (Rattus norvegicus), sequence (P31652 whole entry, looked up): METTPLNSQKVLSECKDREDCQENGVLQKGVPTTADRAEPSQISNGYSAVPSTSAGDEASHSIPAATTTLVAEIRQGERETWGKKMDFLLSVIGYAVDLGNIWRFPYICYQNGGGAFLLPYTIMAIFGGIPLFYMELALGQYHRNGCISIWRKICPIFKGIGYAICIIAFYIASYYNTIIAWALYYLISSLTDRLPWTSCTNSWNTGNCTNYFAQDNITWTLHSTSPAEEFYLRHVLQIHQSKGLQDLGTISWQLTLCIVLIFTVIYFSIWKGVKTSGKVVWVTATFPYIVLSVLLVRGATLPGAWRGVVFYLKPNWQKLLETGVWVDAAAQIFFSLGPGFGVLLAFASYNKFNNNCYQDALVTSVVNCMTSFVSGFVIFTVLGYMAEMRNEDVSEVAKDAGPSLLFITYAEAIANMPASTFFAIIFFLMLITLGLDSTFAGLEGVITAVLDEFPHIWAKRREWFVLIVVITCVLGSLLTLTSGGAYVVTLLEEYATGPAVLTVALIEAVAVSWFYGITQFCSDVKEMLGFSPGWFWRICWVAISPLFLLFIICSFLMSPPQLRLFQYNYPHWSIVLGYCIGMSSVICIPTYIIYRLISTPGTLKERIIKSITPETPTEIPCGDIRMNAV

[6] = target: Sodium-dependent serotonin transporter (Rattus norvegicus, UniProt P31652); assay: Compound was tested for the inhibition of serotonin [3H]SER reuptake into rat forebrain membranes; type: cell membranes, Membrane
Sodium-dependent serotonin transporter, sequence (P31652 whole entry): as the sequence (P31652 whole entry, looked up) above

Rattus norvegicus [7] = species on record: Rattus norvegicus; assay: Compound was tested for the inhibition of [3H]-DA reuptake into rat striatal tissue; type: functional, Striatum
Rattus norvegicus [8] = species on record: Rattus norvegicus; assay: Compound was tested for the inhibition of [3H]DA reuptake into dopamine transporter in rat striatal tissue; type: functional, Striatum

Structure (SMILES) | Ki [1] | Ki [2] | Selectivity ratio [3] | Selectivity ratio [4] | Selectivity ratio [5] | Ki [6] | Ki (Rattus norvegicus [7]) | Ki (Rattus norvegicus [8])
N=c1scc(-c2ccc(Cl)cc2)n1-c1ccccc1F | 189 nM | 36 nM | 0.17 | 0.026 | 6.69 | 1410 nM | 210 nM | –
N=c1scc(-c2ccc(Cl)cc2)n1-c1ccc(Cl)cc1Cl | 533 nM | 141 nM | 0.55 | 0.17 | 3.32 | 843 nM | 254 nM | –
N=c1scc(-c2ccc(Cl)cc2)n1-c1ccccc1N1CCOCC1 | 42000 nM | 22100 nM | 0.29 | 52.1 | 0.006 | 424 nM | – | 76400 nM
CC1C(=O)N=CC(c2ccccc2)=C1c1ccccc1 (stereo not drawn) | > 1000 nM | – | – | – | – | – | – | –
c1ccc(-c2nccnc2-c2ccccc2)cc1 | > 1000 nM | – | – | – | – | – | – | –

Compounds with a lower Ki [1], results first:

Ki [1] | Ki [2] | Selectivity ratio [3] | Selectivity ratio [4] | Selectivity ratio [5] | Ki [6] | Ki (Rattus norvegicus [7]) | Ki (Rattus norvegicus [8]) | Structure (SMILES)
124 nM | 801 nM | 4.68 | 0.31 | 15.3 | 2620 nM | 171 nM | – | Cc1ccc(-c2csc(=N)n2-c2ccc(Cl)cc2)cc1
86 nM | 26 nM | 0.26 | 0.065 | 3.94 | 398 nM | 101 nM | – | N=c1scc(-c2ccc(Cl)cc2)n1-c1cccc(C(F)(F)F)c1
71 nM | 140 nM | 1.17 | 2.09 | 0.56 | 67 nM | 120 nM | – | N=c1scc(-c2ccc(Br)cc2)n1-c1cccc(C(F)(F)F)c1
48 nM | 86 nM | 0.84 | 0.2 | 4.25 | 433 nM | 102 nM | – | Cc1cc(-n2c(-c3c(F)cccc3F)csc2=N)ccc1Cl
24 nM | 99 nM | 4.1 | 0.44 | 9.4 | 225 nM | 23 nM | – | Cc1cc(-c2csc(=N)n2-c2ccc(Cl)cc2)ccc1Cl
